Results published in the supplement of paper PMC10307832.

Columns and labels:
Experiment in all cases: relative viability (nuclei count vs DMSO), 5 days (fraction); higher = more cells survive
Tosedostat + Vorinostat = compound: CC(C)C[C@@H](C(=O)N[C@H](C(=O)OC1CCCC1)c1ccccc1)[C@H](O)C(=O)NO [Tosedostat] + O=C(CCCCCCC(=O)Nc1ccccc1)NO [Vorinostat] (partner 1 µM)
Summary of the method: (§1)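 Relative viability is defined as nuclei in treated wells over nuclei in vehicle wells. Duplicate plates were run and medians reported. Lung cancer cell lines in 1536-well plates were dosed by pin tool one day after seeding, with one drug or with a fixed anchor-drug dose plus five library-drug doses (not always all listed) in √10 steps, and nuclei were counted after 5 days.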

[1] = compound: CC1=NN=C(O1)C2=NN=C(C=C2)N3CCC(CC3)OC4=C(C=CC(=C4)F)Cl + CC(=O)c1c(C)c2cnc(Nc3ccc(N4CCNCC4)cn3)nc2n(C2CCCC2)c1=O [Palbociclib] (partner 0.5 µM)
Summary of the method: as §1

[2] = compound: CC1=NN=C(O1)C2=NN=C(C=C2)N3CCC(CC3)OC4=C(C=CC(=C4)F)Cl + COc1cccc2cc(-c3nc([C@H]4CC[C@H](C(=O)O)CC4)n4ncnc(N)c34)[nH]c12 [OSI-027] (partner 0.5 µM)
Summary of the method: as §1

[3] = compound: CC1=NN=C(O1)C2=NN=C(C=C2)N3CCC(CC3)OC4=C(C=CC(=C4)F)Cl + O=C(CCCCCCC(=O)Nc1ccccc1)NO [Vorinostat] (partner 1 µM)
Summary of the method: as §1

## UMC-11
Tosedostat + Vorinostat; first compound 0.02 µM
  relative viability: 0.459
Tosedostat + Vorinostat; first compound 0.06325 µM
  relative viability: 0.459
Tosedostat + Vorinostat; first compound 0.2 µM
  relative viability: 0.372
Tosedostat + Vorinostat; first compound 0.6325 µM
  relative viability: 0.388
Tosedostat + Vorinostat; first compound 2 µM
  relative viability: 0.391
[1]; first compound 0.253 µM
  relative viability: 0.303
[1]; first compound 0.8 µM
  relative viability: 0.271
[1]; first compound 2.53 µM
  relative viability: 0.3
[1]; first compound 8 µM
  relative viability: 0.39
[2]; first compound 0.253 µM
  relative viability: 0.446
[2]; first compound 0.8 µM
  relative viability: 0.482
[2]; first compound 2.53 µM
  relative viability: 0.529
[2]; first compound 8 µM
  relative viability: 0.565
[3]; first compound 0.253 µM
  relative viability: 0.361
[3]; first compound 0.8 µM
  relative viability: 0.351
[3]; first compound 2.53 µM
  relative viability: 0.431
[3]; first compound 8 µM
  relative viability: 0.383
